According to ChEMBL document CHEMBL1141073, “E-ring modified steroids as novel potent inhibitors of 17beta-hydroxysteroid dehydrogenase type 1” (J Med Chem, 2005):

How the values were obtained:
Format in all cases: cell-based
[1] = molecular target: T1, 17-beta-hydroxysteroid dehydrogenase type 2 (Homo sapiens) (UniProt P37059); experiment: Inhibitory activity at 10 uM against 17-beta-hydroxysteroid dehydrogenase type 2 in MDAMB-231 human breast cancer cells using 2 nM [3H]estradiol; conditions: Cancer cell lines
T1 sequence (whole entry): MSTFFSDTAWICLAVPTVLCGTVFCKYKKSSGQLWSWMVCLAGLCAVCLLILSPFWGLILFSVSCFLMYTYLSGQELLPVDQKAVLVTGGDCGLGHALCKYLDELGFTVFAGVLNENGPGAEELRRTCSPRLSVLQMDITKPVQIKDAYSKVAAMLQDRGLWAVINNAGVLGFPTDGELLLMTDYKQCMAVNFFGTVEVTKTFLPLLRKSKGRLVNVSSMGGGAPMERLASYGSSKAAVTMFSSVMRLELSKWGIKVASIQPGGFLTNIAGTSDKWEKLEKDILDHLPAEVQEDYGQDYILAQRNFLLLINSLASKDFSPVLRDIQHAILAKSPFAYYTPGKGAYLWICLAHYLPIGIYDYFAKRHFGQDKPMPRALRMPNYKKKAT

[2] = molecular target: T2, 17-beta-hydroxysteroid dehydrogenase type 1 (Homo sapiens) (UniProt P14061); experiment: Inhibitory activity at 10 uM against 17-beta-hydroxysteroid dehydrogenase type 1 expressed in T47D human breast cancer cells using 2 nM [3H]estrone
T2 sequence (whole entry): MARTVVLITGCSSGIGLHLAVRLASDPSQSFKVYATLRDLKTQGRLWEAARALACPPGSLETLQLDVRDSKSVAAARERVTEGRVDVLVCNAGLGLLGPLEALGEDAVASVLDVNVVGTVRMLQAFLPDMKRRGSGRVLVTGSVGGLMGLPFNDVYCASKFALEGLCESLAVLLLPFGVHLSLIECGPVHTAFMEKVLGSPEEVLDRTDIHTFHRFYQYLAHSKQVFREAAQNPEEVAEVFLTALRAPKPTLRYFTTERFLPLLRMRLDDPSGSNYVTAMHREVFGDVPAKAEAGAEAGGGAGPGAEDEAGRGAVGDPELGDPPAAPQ

[3] = molecular target: T3, 17-beta-hydroxysteroid dehydrogenase type 1 (Homo sapiens, UniProt P14061); experiment: Inhibition of 17-beta-hydroxysteroid dehydrogenase type 1 expressed in T47D human breast cancer cells using 2 nM [3H]estrone
T3 sequence (P14061 whole entry): T2 sequence (whole entry)

SMILES | inhibition [1] [%] | inhibition [2] [%] | IC50 [3] [nM]
Cn1ncc2c1[C@@]1(C)CCC3c4ccc(O)cc4CCC3C1C2 (stereo not given in full) | 32 | 43 | 
C[C@]12CCC3c4ccc(O)cc4CCC3C1Cc1c2n[nH]c1C(=O)NCc1ccccn1 (stereo not given in full) | 9 | 93 | 
CC(C)NC(=O)c1[nH]nc2c1CC1C3CCc4cc(O)ccc4C3CC[C@]21C (stereo not given in full) | 0 | 57 | 
COCCn1cc2c(n1)[C@@]1(C)CCC3c4ccc(O)cc4CCC3C1C2 (stereo not given in full) | 48 | 95 | 
CCOC(=O)c1[nH]nc2c1CC1C3CCc4cc(O)ccc4C3CC[C@]21C (stereo not given in full) | 7 | 94 | 
C[C@]12CC[C@@H]3c4ccc(O)cc4CCC3[C@@H]1C/C(=N/O)C2=O (single isomer, unassigned) | 5 | 95 | 1100
C[C@]12CCC3c4ccc(O)cc4CCC3C1Cc1c2n[nH]c1C(=O)O (stereo not given in full) | 6 | 32 | 
CC(C)Cn1cc2c(n1)[C@@]1(C)CCC3c4ccc(O)cc4CCC3C1C2 (stereo not given in full) | 61 | 77 | 
Cn1cc2c(n1)[C@@]1(C)CCC3c4ccc(O)cc4CCC3C1C2 (stereo not given in full) | 24 | 94 | 
C[C@]12CCC3c4ccc(O)cc4CCC3C1Cc1cn(CCC#N)nc12 (stereo not given in full) | 44 | 95 | 
COCCn1ncc2c1[C@@]1(C)CCC3c4ccc(O)cc4CCC3C1C2 (stereo not given in full) | 55 | 83 | 
CN1CCN(CNC(=O)c2[nH]nc3c2CC2C4CCc5cc(O)ccc5C4CC[C@]32C)CC1 (stereo not given in full) | 1 | 50 | 
Cn1cccc1CNC(=O)c1[nH]nc2c1CC1C3CCc4cc(O)ccc4C3CC[C@]21C (stereo not given in full) | 4 | 89 | 
C[C@]12CCC3c4ccc(O)cc4CCC3C1Cc1c2n[nH]c1C(=O)NCC1CCCO1 (stereo not given in full) | 4 | 87 | 
COC(=O)Cn1cc2c(n1)[C@@]1(C)CCC3c4ccc(O)cc4CCC3C1C2 (stereo not given in full) | 19 | 95 | 
Cc1cnc(CNC(=O)c2[nH]nc3c2CC2C4CCc5cc(O)ccc5C4CC[C@]32C)cn1 (stereo not given in full) | 61 | 80 | 
C[C@]12CCC3c4ccc(O)cc4CCC3C1CC(C(=O)C(F)(F)F)=C2O (stereo not given in full) | 1.5 | 78 | 

SMILES | inhibition [1] [%] | inhibition [2] [%] | IC50 [3] [nM]
C[C@]12CCC3c4ccc(O)cc4CCC3C1Cc1c2n[nH]c1C(=O)NCCc1cccnc1 (stereo not given in full) | 3 | 99 | 
CNC(=O)c1[nH]nc2c1CC1C3CCc4cc(O)ccc4C3CC[C@]21C (stereo not given in full) | 14 | 62 | 
COC(=O)Cn1ncc2c1[C@@]1(C)CCC3c4ccc(O)cc4CCC3C1C2 (stereo not given in full) | 30 | 79 | 
C[C@]12CC[C@@H]3c4ccc(O)cc4CCC3[C@@H]1CC(=N/O)/C2=N\O (single isomer, unassigned) | 2 | 55 | 
C[C@]12CCC3c4ccc(O)cc4CCC3C1Cc1c(CO)n[nH]c12 (stereo not given in full) | 1 | 94 | 
CC(C)Cn1ncc2c1[C@@]1(C)CCC3c4ccc(O)cc4CCC3C1C2 (stereo not given in full) | 44 | 70 | 
C[C@]12CCC3c4ccc(O)cc4CCC3C1Cc1c2n[nH]c1C(=O)NCc1cccnc1 (stereo not given in full) | 28 | 92 | 
C[C@]12CCC3c4ccc(O)cc4CCC3C1Cc1c[nH]nc12 (stereo not given in full) | 32 | 97 | 180
C[C@]12CCC3c4ccc(O)cc4CCC3C1Cc1c2n[nH]c1C(F)(F)F (stereo not given in full) | 36 | 75 | 
C[C@]12CCC3c4ccc(O)cc4CCC3C1Cc1cccnc12 (stereo not given in full) | 34 | 78 | 
C[C@]12CCC3c4ccc(O)cc4CCC3C1CC(C=O)=C2O (stereo not given in full) | 15 | 97 | 110
CCOC(=O)C(=O)C1=C(O)[C@@]2(C)CCC3c4ccc(O)cc4CCC3C2C1 (stereo not given in full) | 7 | 75 | 
CC1(C#N)C[C@H]2C3CCc4cc(O)ccc4[C@H]3CC[C@]2(C)C1=O (single isomer, unassigned) | 12 | 85 | 
CCN(C)C(=O)c1[nH]nc2c1CC1C3CCc4cc(O)ccc4C3CC[C@]21C (stereo not given in full) | 6 | 88 | 
C[C@]12CC[C@@H]3c4ccc(O)cc4CCC3[C@@H]1CC(C#N)C2=O (single isomer, unassigned) | 17 | 77 | 10000
CC1(C)C[C@H]2C3CCc4cc(O)ccc4[C@H]3CC[C@]2(C)C1=O (single isomer, unassigned) | 35 | 95 | 
